Legend:
[1] = test system: primary mouse hepatocytes; assay: PPARγ2 target gene mRNA (real-time PCR) with 14-3-3 overexpression and oleic acid, primary mouse hepatocytes; format: cell-based; conditions: 14-3-3 overexpression, oleic acid, FIG. 7B
Procedure: (§1) HepG2 cells were seeded in a 6-well plate at a density of 4×10^5 cells per each well, and then transfected with GFP-14-3-3β DNA (4 μg) or GFP-14-3-3γ DNA (4 μg) using an E-fection plus reagent (Lugen). A ratio of DNA to the E-fection plus reagent was 1:2, and this method was performed according to a manufacturer's manual. After transfection, the cells were treated with 200 μM of oleic acid (OA) for 72 hours, and for mRNA extraction, the corresponding cells were lysed with 1 ml/well of TRIzol (Invitrogen), 200 μl of chloroform was added thereto and mixed well, the resultant cells were maintained at room temperature for 5 minutes and then centrifuged at 12,000×g and 4° C. for 15 minutes, the obtained supernatant was mixed with 500 μl of isopropanol and then put on ice for 10 minutes, and the resulting supernatant was centrifuged at 12,000×g and 4° C. for 15 minutes to remove a supernatant, and then pellets were dissolved with tertiary distilled water treated with diethyl pyrocarbonate (DEPC). 2 μg of mRNA was synthesized into cDNA using a Superscript First Strand cDNA Synthesis Kit (Bioneer, Daejeon, South Korea) and the synthesized cDNA as a template was amplified through polymerase chain reaction (PCR) using primers specific to PPARγ2 (SEQ ID NOS: 1 and 2), 14-3-3β (SEQ ID NOS: 3 and 4), 14-3-3γ (SEQ ID NOS: 5 and 6), SREBP-1c, FAT/CD36, and β-actin of humans, and was amplified through real-time PCR using primers specific to SREBP-1c, FAT/CD36, and GAPDH of mice. β-actin and GAPDH were used as controls to see whether mRNAs of the respective cells were compared in the same amount.

[2] = test system: HepG2 cells; assay: PPARγ2 target gene mRNA (PCR) with 14-3-3 overexpression and oleic acid, HepG2 cells; format: cell-based, human; conditions: 14-3-3 overexpression, 200 μM oleic acid 72 hours, FIG. 7A
Procedure: as §1

[3] = biological target: T1, PPARγ2 deletion mutants (Homo sapiens, UniProt P37231); assay: GST-pull down assay with PPARγ2 deletion mutants (HEK-293T); format: binding; conditions: FIG. 3B, 3C
T1 construct: expressed in transfected cells; host or cells: HEK-293T
T1 sequence (P37231 139-505): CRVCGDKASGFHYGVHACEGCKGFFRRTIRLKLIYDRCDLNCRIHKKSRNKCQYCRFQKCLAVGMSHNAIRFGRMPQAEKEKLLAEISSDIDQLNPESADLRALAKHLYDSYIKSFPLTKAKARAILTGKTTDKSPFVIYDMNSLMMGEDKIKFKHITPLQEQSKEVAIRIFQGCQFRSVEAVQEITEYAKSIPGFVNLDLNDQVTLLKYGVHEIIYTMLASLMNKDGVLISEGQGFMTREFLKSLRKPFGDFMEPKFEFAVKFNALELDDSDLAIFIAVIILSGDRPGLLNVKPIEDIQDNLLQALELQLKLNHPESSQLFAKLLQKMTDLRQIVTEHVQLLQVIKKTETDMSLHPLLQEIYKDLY
Procedure: The PPARγ2 protein has been reported to consist of an activation function 1 (AF-1, amino acids 1-138) domain, a DNA-binding domain (DBD, amino acids 139-203), a hinge region (amino acids 204-310), and an activation function 2 (AF-2, amino acids 311-505) domain (see FIG. 3A). Thus, GST-pull down assay was conducted to verify which domain part of PPARγ2 was bound to 14-3-3β and 14-3-3γ.
HEK-293T cells were seeded in a 100 mm plate at a density of 2×10^6 cells per each well, and then transfected with Flag-PPARγ2 (1-505) DNA (4 μg), Flag-PPARγ2 (1-310) DNA (4 μg), Flag-PPARγ2 (139-505) DNA (4 μg), and mGST-14-3-3β (4 μg) or mGST-14-3-3γ (4 μg) using an E-fection plus reagent (Lugen). For Flag-PPARγ2 (1-310) DNA and Flag-PPARγ2 (139-505) DNA, DNA fragments amplified through polymerase chain reaction (PCR) were cloned into a pCMV-3Tag-1 vector using restriction enzymes Xhol and Apal. A ratio of DNA to the E-fection plus reagent was 1:2, and this method was performed according to a manufacturer's manual. The corresponding cells were washed with ice-cold PBS and lysed using 500 μl/well of a lysis buffer (150 mM NaCl, 1 mM EDTA, 1% Nonidet P-40, 5% glycerol, 25 mM tris-HCl, pH 7.5, protease inhibitor added), and the lysed cells were centrifuged at 10,000×g and 4° C. for 10 minutes to extract proteins. Thereafter, 1,000 μg of the proteins was reacted with 20 μl of glutathione Sepharose 4B beads (GE Healthcare, Buckinghamshire, UK) for 6 hours, and then washing of the beads with 1 ml of ice-cold PBS was repeated 5 times, and the beads were boiled at 100° C. for 10 minutes, followed by 10% SDS-PAGE gel separation and western blotting. A ratio of GST antibodies (Santa Cruz) to Flag antibodies (Santa Cruz) was 1:3000. The detection of each protein was performed using West Pico ECL (Thermo scientific, Rockford, Ill.) and identified in a darkroom.

[4] = test system: HepG2 cells; assay: Triglyceride colorimetric assay, HepG2 cells; format: cell-based; conditions: 14-3-3 overexpression, 200 μM oleic acid 72 hours, FIG. 10A
Procedure: A triglyceride (neutral fat) is a type of fatty acid and is used as an index of a fat content. A biochemical lipid test was carried out by measuring an amount of triglycerides. HepG2 cells and primary mouse hepatocytes were separately seeded in a 6-well plate at a density of 4×10^5 cells per each well, and then transfected with GFP-14-3-3β DNA (1 μg) or GFP-14-3-3γ DNA (1 μg) and si-14-3-3β (10 μM, Santa Cruz) or si-14-3-3γ (10 μM, Santa Cruz) using an E-fection plus reagent (Lugen). A ratio of DNA to the E-fection plus reagent was 1:2, and this method was performed according to a manufacturer's manual. After transfection, the cells were treated with 200 μM of oleic acid (OA) for 72 hours, and the amount of triglycerides was measured using a triglyceride colorimetric assay kit (Cayman Chemical). The corresponding cells were washed with ice-cold PBS and then scraped using a standard diluent assay reagent, the scrapping process was repeated using a sonicator 20 times to lyse the cells, and the lysed cells were reacted with an enzyme buffer solution for 15 minutes, followed by measurement using an ELISA reader (Bio-Rad Laboratories, Inc) at a wavelength of 550 nm.

| binding to PPARγ2 deletion mutant (139-505) [3] | Substance | mRNA expression of FAT/CD36 [1] | mRNA expression of SREBP-1c [1] | mRNA expression of FAT/CD36 [2] | mRNA expression of SREBP-1c [2] | triglyceride accumulation [4] |
| --- | --- | --- | --- | --- | --- | --- |
| bound | 14-3-3β: 14-3-3 isoform protein, overexpressed by DNA transfection; regulating factor that increases transcriptional activity of PPARγ2 | further increased | further increased | further increased | further increased | further increased |
| bound | 14-3-3γ: 14-3-3 isoform protein, overexpressed by DNA transfection; regulating factor that decreases transcriptional activity of PPARγ2 | reduced | reduced | reduced | reduced | reduced triglyceride accumulation |

From patent US20180207294A1, “NON-ALCOHOLIC FATTY LIVER REGULATING FACTOR 14-3-3 PROTEIN” (Korea University Research and Business Foundation, priority 2015, published 2018)
